# From the supplement of paper PMC10733146
# What was measured:
# Assay in all cases: viability relative to DMSO control (fraction); higher = less drug effect (more viable cells)
# Conditions in all cases: 48 h
# [1] = compound: O=C(NO)c1cccc(C(=O)NCCc2ccccc2)c1
# How it was run: (§1)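 Compounds were pre-plated at five concentrations, one well each, in 384-well plates, and primary mononuclear tumour cells were plated on them at 4 × 10^4 cells per well. The cells, fresh or cryopreserved, had been Ficoll-isolated from blood or bone marrow or taken from processed lymph node. After 48 h at 37 °C and 5% CO2 in RPMI-1640 with penicillin/streptomycin, L-glutamine and human serum, viability was read as CellTiter-Glo luminescence relative to the median of 16 inner DMSO wells.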
# Palbociclib = compound: CC(=O)c1c(C)c2cnc(Nc3ccc(N4CCNCC4)cn3)nc2n(C2CCCC2)c1=O [Palbociclib]
# How it was run: as §1
# Navitoclax = compound: CC1(C)CCC(c2ccc(Cl)cc2)=C(CN2CCN(c3ccc(C(=O)NS(=O)(=O)c4ccc(N[C@H](CCN5CCOCC5)CSc5ccccc5)c(S(=O)(=O)C(F)(F)F)c4)cc3)CC2)C1 [Navitoclax]
# How it was run: as §1
# Etoposide = compound: COc1cc([C@@H]2c3cc4c(cc3[C@@H](O[C@@H]3O[C@@H]5CO[C@@H](C)O[C@H]5[C@H](O)[C@H]3O)[C@H]3COC(=O)[C@H]23)OCO4)cc(OC)c1O [Etoposide]
# How it was run: as §1
# Thalidomide = compound: O=C1CCC(N2C(=O)c3ccccc3C2=O)C(=O)N1 [Thalidomide]
# How it was run: as §1
# Roscovitine = compound: CC[C@H](CO)Nc1nc(NCc2ccccc2)c2ncn(C(C)C)c2n1 [Roscovitine]
# How it was run: as §1
# Bendamustine = compound: Cn1c(CCCC(=O)O)nc2cc(N(CCCl)CCCl)ccc21 [Bendamustine]
# How it was run: as §1
# Duvelisib = compound: C[C@H](Nc1ncnc2nc[nH]c12)c1cc2cccc(Cl)c2c(=O)n1-c1ccccc1 [Duvelisib]
# How it was run: as §1
# Barasertib = compound: CCN(CCCOc1ccc2c(Nc3cc(CC(=O)Nc4cccc(F)c4)[nH]n3)ncnc2c1)CCOP(=O)(O)O [Barasertib]
# How it was run: as §1
# Selinexor = compound: O=C(/C=C\n1cnc(-c2cc(C(F)(F)F)cc(C(F)(F)F)c2)n1)NNc1cnccn1 [Selinexor]
# How it was run: as §1
# Pomalidomide = compound: Nc1cccc2c1C(=O)N(C1CCC(=O)NC1=O)C2=O [Pomalidomide]
# How it was run: as §1
# I-BET-762 = compound: CCNC(=O)C[C@@H]1N=C(c2ccc(Cl)cc2)c2cc(OC)ccc2-n2c(C)nnc21 [I-BET-762]
# How it was run: as §1
# [2] = compound: O=C(Nc1ccc2[nH]nc(-c3ccncc3)c2c1)[C@@H]1CCN(CC(=O)N2CCN(c3ccc(-c4ncccn4)cc3)CC2)C1
# How it was run: as §1
# Filgotinib = compound: O=C(Nc1nc2cccc(-c3ccc(CN4CCS(=O)(=O)CC4)cc3)n2n1)C1CC1 [Filgotinib]
# How it was run: as §1
# Chlorambucil = compound: O=C(O)CCCc1ccc(N(CCCl)CCCl)cc1 [Chlorambucil]
# How it was run: as §1
test system,measurement,setting,value
primary BL patient cells (S005),viability,[1]; 0.024 µM,1.08
same,viability,[1]; 0.12 µM,1
same,viability,[1]; 0.6 µM,1.04
same,viability,[1]; 3 µM,1.04
same,viability,[1]; 15 µM,1.03
same,viability,Palbociclib; 0.024 µM,0.948
same,viability,Palbociclib; 0.12 µM,1.16
same,viability,Palbociclib; 0.6 µM,0.873
same,viability,Palbociclib; 3 µM,1.06
same,viability,Palbociclib; 15 µM,0.825
same,viability,Navitoclax; 0.0032 µM,1.1
same,viability,Navitoclax; 0.016 µM,0.999
same,viability,Navitoclax; 0.08 µM,1.11
same,viability,Navitoclax; 0.4 µM,1.06
same,viability,Navitoclax; 2 µM,1.06
same,viability,Etoposide; 0.032 µM,1
same,viability,Etoposide; 0.16 µM,1.22
same,viability,Etoposide; 0.8 µM,1.3
same,viability,Etoposide; 4 µM,1.05
same,viability,Etoposide; 20 µM,1.12
same,viability,Thalidomide; 0.032 µM,0.924
same,viability,Thalidomide; 0.16 µM,0.966
same,viability,Thalidomide; 0.8 µM,0.953
same,viability,Thalidomide; 4 µM,0.98
same,viability,Thalidomide; 20 µM,0.919
same,viability,Roscovitine; 0.032 µM,1.01
same,viability,Roscovitine; 0.16 µM,1.56
same,viability,Roscovitine; 0.8 µM,1.01
same,viability,Roscovitine; 4 µM,1.6
same,viability,Roscovitine; 20 µM,1.37
same,viability,Bendamustine; 0.032 µM,1.01
same,viability,Bendamustine; 0.16 µM,1.06
same,viability,Bendamustine; 0.8 µM,1.02
same,viability,Bendamustine; 4 µM,1.01
same,viability,Bendamustine; 20 µM,1.07
same,viability,Duvelisib; 0.0016 µM,1.01
same,viability,Duvelisib; 0.008 µM,1.03
same,viability,Duvelisib; 0.04 µM,0.93
same,viability,Duvelisib; 0.2 µM,0.981
same,viability,Duvelisib; 1 µM,0.831
same,viability,Barasertib; 0.0008 µM,1.38
same,viability,Barasertib; 0.004 µM,1.33
same,viability,Barasertib; 0.02 µM,0.929
same,viability,Barasertib; 0.1 µM,0.856
same,viability,Barasertib; 0.5 µM,0.917
same,viability,Selinexor; 0.008 µM,0.977
same,viability,Selinexor; 0.04 µM,0.923
same,viability,Selinexor; 0.2 µM,0.928
same,viability,Selinexor; 1 µM,0.81
same,viability,Selinexor; 5 µM,0.743
same,viability,Pomalidomide; 0.0032 µM,0.921
same,viability,Pomalidomide; 0.016 µM,1.07
same,viability,Pomalidomide; 0.08 µM,1.11
same,viability,Pomalidomide; 0.4 µM,0.957
same,viability,Pomalidomide; 2 µM,1.04
same,viability,I-BET-762; 0.008 µM,1.08
same,viability,I-BET-762; 0.04 µM,0.956
same,viability,I-BET-762; 0.2 µM,0.889
same,viability,I-BET-762; 1 µM,0.822
same,viability,I-BET-762; 5 µM,0.768
same,viability,[2]; 0.008 µM,1.02
same,viability,[2]; 0.04 µM,1.08
same,viability,[2]; 0.2 µM,1.02
same,viability,[2]; 1 µM,0.993
same,viability,[2]; 5 µM,0.935
same,viability,Filgotinib; 0.024 µM,0.996
same,viability,Filgotinib; 0.12 µM,0.835
same,viability,Filgotinib; 0.6 µM,0.971
same,viability,Filgotinib; 3 µM,0.909
same,viability,Filgotinib; 15 µM,0.469
same,viability,Chlorambucil; 0.032 µM,0.967
same,viability,Chlorambucil; 0.16 µM,0.887
same,viability,Chlorambucil; 0.8 µM,0.974
same,viability,Chlorambucil; 4 µM,1.02
same,viability,Chlorambucil; 20 µM,0.918
primary CLL patient cells (S031),viability,[1]; 0.024 µM,1.04
same,viability,[1]; 0.12 µM,0.976
same,viability,[1]; 0.6 µM,0.921
same,viability,[1]; 3 µM,0.972
same,viability,[1]; 15 µM,0.966
same,viability,Palbociclib; 0.024 µM,0.971
same,viability,Palbociclib; 0.12 µM,0.805
same,viability,Palbociclib; 0.6 µM,0.662
same,viability,Palbociclib; 3 µM,0.363
same,viability,Palbociclib; 15 µM,0.317
same,viability,Navitoclax; 0.0032 µM,1.03
same,viability,Navitoclax; 0.016 µM,0.762
same,viability,Navitoclax; 0.08 µM,0.361
same,viability,Navitoclax; 0.4 µM,0.109
same,viability,Navitoclax; 2 µM,0.0291
same,viability,Etoposide; 0.032 µM,1.03
same,viability,Etoposide; 0.16 µM,0.996
same,viability,Etoposide; 0.8 µM,0.858
same,viability,Etoposide; 4 µM,0.728
same,viability,Etoposide; 20 µM,0.329
same,viability,Thalidomide; 0.032 µM,0.913
same,viability,Thalidomide; 0.16 µM,0.974
same,viability,Thalidomide; 0.8 µM,0.95
same,viability,Thalidomide; 4 µM,0.97
same,viability,Thalidomide; 20 µM,0.961
same,viability,Roscovitine; 0.032 µM,0.81
same,viability,Roscovitine; 0.16 µM,0.872
same,viability,Roscovitine; 0.8 µM,0.921
same,viability,Roscovitine; 4 µM,0.734
same,viability,Roscovitine; 20 µM,0.455
same,viability,Bendamustine; 0.032 µM,1.15
same,viability,Bendamustine; 0.16 µM,1.07
same,viability,Bendamustine; 0.8 µM,1.1
same,viability,Bendamustine; 4 µM,0.991
same,viability,Bendamustine; 20 µM,0.392
same,viability,Duvelisib; 0.0016 µM,0.735
same,viability,Duvelisib; 0.008 µM,0.681
same,viability,Duvelisib; 0.04 µM,0.561
same,viability,Duvelisib; 0.2 µM,0.587
same,viability,Duvelisib; 1 µM,0.475
same,viability,Barasertib; 0.0008 µM,0.781
same,viability,Barasertib; 0.004 µM,0.764
same,viability,Barasertib; 0.02 µM,0.85
same,viability,Barasertib; 0.1 µM,0.954
same,viability,Barasertib; 0.5 µM,0.93
same,viability,Selinexor; 0.008 µM,0.832
same,viability,Selinexor; 0.04 µM,0.762
same,viability,Selinexor; 0.2 µM,0.706
same,viability,Selinexor; 1 µM,0.561
same,viability,Selinexor; 5 µM,0.387
same,viability,Pomalidomide; 0.0032 µM,0.987
same,viability,Pomalidomide; 0.016 µM,1.24
same,viability,Pomalidomide; 0.08 µM,1.27
same,viability,Pomalidomide; 0.4 µM,1.33
same,viability,Pomalidomide; 2 µM,1.48
same,viability,I-BET-762; 0.008 µM,0.986
same,viability,I-BET-762; 0.04 µM,0.964
same,viability,I-BET-762; 0.2 µM,0.969
same,viability,I-BET-762; 1 µM,0.842
same,viability,I-BET-762; 5 µM,0.628
same,viability,[2]; 0.008 µM,0.782
same,viability,[2]; 0.04 µM,0.686
same,viability,[2]; 0.2 µM,0.469
same,viability,[2]; 1 µM,0.307
same,viability,[2]; 5 µM,0.269
same,viability,Filgotinib; 0.024 µM,1.03
same,viability,Filgotinib; 0.12 µM,0.984
same,viability,Filgotinib; 0.6 µM,1.08
same,viability,Filgotinib; 3 µM,0.962
same,viability,Filgotinib; 15 µM,0.284
same,viability,Chlorambucil; 0.032 µM,0.957
same,viability,Chlorambucil; 0.16 µM,0.875
same,viability,Chlorambucil; 0.8 µM,0.965
same,viability,Chlorambucil; 4 µM,0.661
same,viability,Chlorambucil; 20 µM,0.102
